# Test results taken from EPA's ToxRefDB 2.
# Experiments:
# rat [1] = conditions: Subchronic oral toxicity in rodents, sprague dawley, Gavage/Intubation, dose end: 90 day, group: systemic, systemic / organ weight / liver / absolute + systemic / organ weight / liver / relative to body weight + systemic / pathology microscopic / …
# rat [2] = conditions: Prenatal developmental toxicity study, sprague dawley, Oral, Gavage/Intubation, dose end: 15 GD
# dog [3] = conditions: Subchronic oral toxicity in nonrodent, beagle, Capsule, dose end: 90 day, group: systemic, systemic / pathology microscopic / liver / [other] + systemic / pathology microscopic / liver / hypertrophy + systemic / pathology …
# rabbit = conditions: Prenatal developmental toxicity study, new zealand white, Oral, Gavage/Intubation, dose end: 18 GD
# dog [4] = conditions: Subchronic oral toxicity in nonrodent, beagle, Capsule, dose end: 90 day, group: systemic
# rat [5] = conditions: Sub-acute repeat dose toxicity, Sprague Dawley, Oral, Gavage/Intubation, dose end: 28 day
# rat [6] = conditions: Multigenerational reproductive toxicity study, sprague dawley, Oral, Feed, dose end: 3 generation
# rat [7] = conditions: Multigenerational reproductive toxicity study, sprague dawley, Oral, Feed, dose end: 2 generation
# rat [8] = conditions: Subchronic oral toxicity in rodents, other, Feed, dose end: 17 week, group: systemic
# rat [9] = conditions: Multigenerational reproductive toxicity study, sprague dawley, Oral, Feed, dose end: 3 generation; remark: listed apart in the source
# [10] = group: developmental, systemic / in life observation / body weight / fetal weight
# [11] = group: maternal, systemic / in life observation / clinical signs / respiration (rales) + systemic / in life observation / clinical signs / salivation + …
# [12] = group: developmental, developmental / developmental malformation / bone / misshapen
# [13] = group: maternal, reproductive / reproductive performance / postimplantation loss / postimplantation loss + systemic / in life observation / body weight / …
# [14] = systemic / pathology microscopic / liver / cytoplasmic alteration + systemic / pathology microscopic / liver / vacuolization
# [15] = systemic / pathology microscopic / liver / cytoplasmic alteration + systemic / pathology microscopic / liver / vacuolization + systemic / …
# [16] = group: maternal, reproductive / reproductive performance / estrous cycle / abnormal
# [17] = group: systemic, systemic / clinical chemistry / glucose / glucose + systemic / clinical chemistry / luteinizing hormone (lh) / luteinizing hormone (lh) + …
# [18] = group: offspring, developmental / developmental landmark / preputial separation / preputial separation + systemic / in life observation / body weight / …
# [19] = group: offspring, systemic / in life observation / food consumption / food consumption + systemic / pathology microscopic / kidney / degeneration
# [20] = group: parental, systemic / in life observation / food consumption / food consumption + systemic / organ weight / kidney / relative to body weight
# [21] = group: parental, systemic / pathology gross / sperm measure / sperm morphology
# [22] = group: reproductive, reproductive / offspring survival early / live fetuses / live fetuses
# [23] = group: offspring, systemic / hematology / leukocyte (wbc) count differential / leukocyte (wbc) + systemic / hematology / monocytes / monocytes
# [24] = group: offspring, systemic / hematology / leukocyte (wbc) count differential / leukocyte (wbc) + systemic / in life observation / body weight / offspring (pup…
# [25] = group: parental, systemic / hematology / leukocyte (wbc) count differential / leukocyte (wbc) + systemic / in life observation / body weight / body weight
# [26] = systemic / in life observation / body weight / body weight gain + systemic / in life observation / food consumption / food consumption + …
# [27] = group: offspring, developmental / developmental landmark / vaginal opening / vaginal opening + systemic / in life observation / body weight / offspring (pup) …
# [28] = group: parental, systemic / in life observation / body weight / body weight + systemic / organ weight / kidney / relative to body weight + systemic / organ …
# [29] = group: parental, systemic / pathology microscopic / kidney / mineralization + systemic / pathology microscopic / kidney / cyst + systemic / pathology …
# [30] = group: reproductive, reproductive / offspring survival early / litter size / litter size + reproductive / reproductive performance / estrous cycle / length + …
# [31] = group: reproductive, reproductive / reproductive performance / gestational length / gestational length
smiles,measurement,setting,value
CCCCCC(C)(CC)C(=O)NC (configuration not stated) [N-Methylneodecanamide],LEL,rat [1],30 mg/kg/day
same,LOAEL,rat [1],30 mg/kg/day
same,NEL,rat [1],3 mg/kg/day
same,NOAEL,rat [1],3 mg/kg/day
same,LEL,rat [2]; [10],400 mg/kg/day
same,LOAEL,rat [2]; [10],400 mg/kg/day
same,NEL,rat [2]; [10],125 mg/kg/day
same,NOAEL,rat [2]; [10],125 mg/kg/day
same,LEL,rat [2]; [11],125 mg/kg/day
same,LOAEL,rat [2]; [11],125 mg/kg/day
same,NEL,rat [2]; [11],40 mg/kg/day
same,NOAEL,rat [2]; [11],40 mg/kg/day
same,LEL,dog [3],4.52 mg/kg/day
same,LOAEL,dog [3],4.52 mg/kg/day
same,NEL,dog [3],1.35 mg/kg/day
same,NOAEL,dog [3],1.35 mg/kg/day
same,LEL,rabbit; [12],200 mg/kg/day
same,LOAEL,rabbit; [12],200 mg/kg/day
same,NEL,rabbit; [12],100 mg/kg/day
same,NOAEL,rabbit; [12],100 mg/kg/day
same,LEL,rabbit; [13],200 mg/kg/day
same,LOAEL,rabbit; [13],200 mg/kg/day
same,NEL,rabbit; [13],100 mg/kg/day
same,NOAEL,rabbit; [13],100 mg/kg/day
same,LOAEL,dog [4]; [14],13.5 mg/kg/day
same,NOAEL,dog [4]; [14],< 13.5 mg/kg/day
same,LEL,dog [4]; [15],13.5 mg/kg/day
same,NEL,dog [4]; [15],< 13.5 mg/kg/day
"CC(C)CCCCCCc1ccc(O)cc1 [4-Nonylphenol, branched]",LEL,rat [5]; [16],250 mg/kg/day
same,LOAEL,rat [5]; [16],> 250 mg/kg/day
same,NEL,rat [5]; [16],50 mg/kg/day
same,NOAEL,rat [5]; [16],≥ 250 mg/kg/day
same,LEL,rat [5]; [17],50 mg/kg/day
same,LOAEL,rat [5]; [17],> 250 mg/kg/day
same,NEL,rat [5]; [17],10 mg/kg/day
same,NOAEL,rat [5]; [17],≥ 250 mg/kg/day
same,LOAEL,rat [6]; [18],> 171 mg/kg/day
same,NOAEL,rat [6]; [18],≥ 171 mg/kg/day
same,LEL,rat [6]; [19],18 mg/kg/day
same,NEL,rat [6]; [19],< 18 mg/kg/day
same,LOAEL,rat [6]; [20],> 122 mg/kg/day
same,NOAEL,rat [6]; [20],≥ 122 mg/kg/day
same,LEL,rat [6]; [21],18 mg/kg/day
same,NEL,rat [6]; [21],< 18 mg/kg/day
same,LEL,rat [6]; [22],171 mg/kg/day
same,LOAEL,rat [6]; [22],> 171 mg/kg/day
same,NEL,rat [6]; [22],53 mg/kg/day
same,NOAEL,rat [6]; [22],≥ 171 mg/kg/day
same,LEL,rat [7]; [23],1.25 mg/kg/day
same,NEL,rat [7]; [23],< 1.25 mg/kg/day
same,LOAEL,rat [7]; [24],> 100 mg/kg/day
same,NOAEL,rat [7]; [24],≥ 100 mg/kg/day
same,LEL,rat [7]; [25],100 mg/kg/day
same,LOAEL,rat [7]; [25],> 100 mg/kg/day
same,NEL,rat [7]; [25],25 mg/kg/day
same,NOAEL,rat [7]; [25],≥ 100 mg/kg/day
same,LEL,rat [8]; systemic / in life observation / body weight / body weight,50 mg/kg/day
same,NEL,rat [8]; systemic / in life observation / body weight / body weight + systemic / in life observation / body weight / body weight gain + systemic / …,15 mg/kg/day
same,LOAEL,rat [8]; [26],> 150 mg/kg/day
same,NOAEL,rat [8]; [26],≥ 150 mg/kg/day
same,NEL,"rat [9]; group: offspring, developmental / developmental landmark / vaginal opening / vaginal opening",10 mg/kg/day
same,LEL,rat [9]; [27],32.5 mg/kg/day
same,LOAEL,rat [9]; [27],> 100 mg/kg/day
same,NOAEL,rat [9]; [27],≥ 100 mg/kg/day
same,LOAEL,rat [9]; [28],> 100 mg/kg/day
same,NOAEL,rat [9]; [28],≥ 100 mg/kg/day
same,LEL,rat [9]; [29],10 mg/kg/day
same,NEL,rat [9]; [29],< 10 mg/kg/day
same,LOAEL,rat [9]; [30],> 100 mg/kg/day
same,NOAEL,rat [9]; [30],≥ 100 mg/kg/day
same,LEL,rat [9]; [31],10 mg/kg/day
same,NEL,rat [9]; [31],< 10 mg/kg/day
